# Results taken from BindingDB's records for doi:10.1021/bi030031h (Medical College of Ohio, 2003).
# Biological target: T1, Glycine--tRNA ligase (Bombyx mori, UniProt Q04451)
# T1 sequence (Q04451 whole entry): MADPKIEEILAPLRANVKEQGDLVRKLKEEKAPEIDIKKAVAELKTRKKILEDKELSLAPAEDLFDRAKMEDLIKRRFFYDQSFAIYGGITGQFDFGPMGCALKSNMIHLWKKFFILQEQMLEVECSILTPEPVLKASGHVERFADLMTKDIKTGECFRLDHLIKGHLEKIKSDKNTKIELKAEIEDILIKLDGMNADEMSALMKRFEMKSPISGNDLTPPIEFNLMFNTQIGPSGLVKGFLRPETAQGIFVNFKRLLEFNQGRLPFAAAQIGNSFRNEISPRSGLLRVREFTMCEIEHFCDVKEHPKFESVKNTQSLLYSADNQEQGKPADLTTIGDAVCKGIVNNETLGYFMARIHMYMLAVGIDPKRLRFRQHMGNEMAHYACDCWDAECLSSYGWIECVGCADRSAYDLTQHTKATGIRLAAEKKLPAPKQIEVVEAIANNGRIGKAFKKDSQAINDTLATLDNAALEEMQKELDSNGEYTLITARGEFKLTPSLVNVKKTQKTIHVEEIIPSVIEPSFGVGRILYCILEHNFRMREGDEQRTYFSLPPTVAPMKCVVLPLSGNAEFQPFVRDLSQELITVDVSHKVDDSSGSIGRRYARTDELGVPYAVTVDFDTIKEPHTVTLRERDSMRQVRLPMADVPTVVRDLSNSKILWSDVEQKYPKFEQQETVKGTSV
# Experiment: In Vitro Enzyme Activity Assay
# Details: pH 7.5; 25 °C
# Excerpt: Aminoacyl-tRNA synthetase assays were measuring the incorporation of [14C] amino acid into tRNA.
Compound,IC50,Ki,Kd
Nc1ncnc2c1ncn2[C@@H]1O[C@H](COP(=O)(O)OP(=O)(O)OP(=O)(O)O)[C@@H](O)[C@H]1O,100 µM,13 µM,
NCC(=O)NS(=O)(=O)OC[C@H]1O[C@@H](n2cnc3c(N)ncnc32)[C@H](O)[C@@H]1O [5-O-[N-(L-glycyl)sulfamoyl]adenosine],2 µM,0.05 µM,0.27 µM
Nc1ncnc2c1ncn2[C@@H]1O[C@H](COP(=O)(O)OP(=O)(O)NP(=O)(O)O)[C@@H](O)[C@H]1O [AMP.P[NH]P],100 µM,20 µM,
Nc1ncnc2c1ncn2[C@@H]1O[C@H](COP(=O)(O)O)[C@@H](O)[C@H]1O [adenosine 5 -monophosphate],800 µM,80 µM,
Nc1ncnc2c1ncn2[C@@H]1O[C@H](COP(=O)(O)OP(=O)(O)CP(=O)(O)O)[C@@H](O)[C@H]1O [adenylylmethylenediphosphonate],10 µM,0.8 µM,
"Nc1ncnc2c1ncn2[C@@H]1O[C@H](COP(=O)(O)CP(=O)(O)O)[C@@H](O)[C@H]1O [alpha, beta-methyleneadenosine 5 -diphosphate]",600 µM,60 µM,
